Laboratory results reported in patent publication EP0039857A1, “Preparation for the care of the skin” (Henkel Kommanditgesellschaft auf Aktien, priority 1980, dated 1981).

Assays:
[1] = target: T1, Lipase aus Rhizopus arrhizus (Triacylglyceroacylhydrolase EC 3.1.1.3) (Rhizopus oryzae, UniProt P61872); assay: Enzyme inhibition test, lipase (acidimetric comparison with control); type: biochemical; conditions: read-out: Hemmwerte in % gegen Lipase; for inhibition at 2500 ppm: substrate Olivenöl, enzyme 0,25 mg in 20 ml
T1 construct: Lipase aus Rhizopus arrhizus (Triacylglyceroacylhydrolase EC 3.1.1.3); host or cells: Rhizopus arrhizus (natural producer)
T1 sequence (P61872 96-392): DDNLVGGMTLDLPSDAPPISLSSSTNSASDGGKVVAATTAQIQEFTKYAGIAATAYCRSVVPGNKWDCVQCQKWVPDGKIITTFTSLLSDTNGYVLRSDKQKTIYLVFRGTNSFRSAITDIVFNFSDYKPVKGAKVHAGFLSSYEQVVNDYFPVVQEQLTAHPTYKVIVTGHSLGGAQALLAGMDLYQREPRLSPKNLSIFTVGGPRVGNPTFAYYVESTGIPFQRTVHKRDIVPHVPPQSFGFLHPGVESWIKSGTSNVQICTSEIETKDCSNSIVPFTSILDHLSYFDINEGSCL
Procedure: (§1) Zur Feststellung der enzyminhibierenden Wirksamkeit wurde folgende Testmethodik verwendet. Es wurden jeweils 0,2 Mol in 10 bis 20 ml physiologischer NatriumchloridLösung Substrat eingesetzt. Als Testenzyme dienten: • Esterase aus Schweineleber (Carboxylic-esterhydrolase EC 3.1.1.1) • Spezifische Aktivität: circa 100 U/mg, Einsatzkonzentration: 1 mg in 16 ml Lösung. • Als Substrat diente Citronensäuretriethylester. • Lipase aus Rhizopus arrhizus (Triacylglyceroacylhydrolase EC 3.1.1.3) • Spezifische Aktivität: circa 1 200 U/mg, Einsatzkonzentration: 0,25 mg in 20 ml Lösung • Als Substrat diente Olivenöl. Zur Stabilisierung der Emulsion wurde Natriumdesoxycholat und Gummi arabicum verwendet. Die Hemmwerte wurden bestimmt durch azidimetrischen Vergleich der Kontrolle mit der durch die Prüfsubstanz gehemmten Reaktion und in % ausgedrückt. Als Konzentration für die Hemmsubstanzen wurden 2 500 ppm gewählt.

[2] = system: Esterase aus Schweineleber (Carboxylic-esterhydrolase EC 3.1.1.1); assay: Enzyme inhibition test, esterase (acidimetric comparison with control); type: biochemical, Schwein; conditions: 2 500 ppm test substance; substrate Citronensäuretriethylester; enzyme 1 mg in 16 ml
Procedure: as §1

SMILES | inhibition at 2500 ppm [1] [%] | Hemmwerte in % gegen Esterase [2] [%] | inhibition at 500 ppm [1] [%]
CCN(CC)C(=O)Cc1ccc(Cl)cc1 [Produkt A, p-Chlorphenylacet-diethylamid] | 23 | 77 | 
CCN(CC)C(=O)Cc1ccc(OC)c(OC)c1 [Produkt B, 3,4-Dimethoxy-phenylacet-diethylamid] | 10 | 60 | 
CCN(CC)C(=O)CC(c1ccccc1)c1ccccc1 [Produkt C, 3,3-Diphenyl-propionsäure-diethylamid] | 12 | 57 | 
CCN(CC)C(=O)C(C)(C)Oc1ccc(Cl)cc1 [Produkt D, 2-(p-Chlorphenoxy)-2-methylpropionsäure-diethylamid] | 52 | 11 | 
CCOC(=O)C(O)(c1ccccc1)c1ccccc1 [Produkt H, Benzilsäure-ethylester] |  | 54 | 28

The next lines start with results.

inhibition at 2500 ppm [1] [%] | Hemmwerte in % gegen Esterase [2] [%] | SMILES | inhibition at 500 ppm [1] [%]
59 | 30 | CCN(CC)C(=O)C(C)(C)Sc1ccc(Cl)cc1 [Produkt E, 2-(p-Chlor-phenylthio)-2-methylpropionsäure-diethylamid] | 
10 | 65 | CCN(CC)C(=O)COc1ccc(Cl)cc1 [Produkt F, p-Chlor-phenoxyacet-diethylamid] | 
12 | 48 | CCN(CC)C(=O)COc1ccc(C)c(C)c1 [Produkt G, 3,4-Dimethyl-phenoxyacet-diethylamid] | 
